Results reported in the NIST ThermoML archive (doi:10.1021/je900903w).

Assay: mn = molality of the nth substance listed, in mol/kg
Conditions: 101 kPa, Liquid; for molar conductivity: Alternating current cell with electrodes

O=C[O-].[K+] [potassium formate] + O
Conditions	mass density, 298.15 K [kg/m3]	molar conductivity, 278.15 K [S·m2/mol]	molar conductivity, 283.15 K [S·m2/mol]	molar conductivity, 288.15 K [S·m2/mol]	molar conductivity, 293.15 K [S·m2/mol]	molar conductivity, 298.15 K [S·m2/mol]	molar conductivity, 303.15 K [S·m2/mol]	molar conductivity, 308.15 K [S·m2/mol]	molar conductivity, 313.15 K [S·m2/mol]
m1 = 0.0003498	–	0.007906	0.009019	0.01018	0.01138	0.0126	0.01387	0.01516	0.01649
m1 = 0.0006599	–	0.007826	0.008931	0.01008	0.01128	0.01251	0.01377	0.01502	0.01632
m1 = 0.001026	–	0.007789	0.008888	0.01003	0.01121	0.01245	0.01371	0.015	0.01628
m1 = 0.001412	–	0.007752	0.008844	0.009984	0.01117	0.01239	0.01365	0.01494	0.01622
m1 = 0.001766	–	0.007701	0.008787	0.009919	0.0111	0.01231	0.01356	0.01485	0.01614
m1 = 0.002217	–	0.007674	0.008755	0.009886	0.01106	0.01226	0.01351	0.0148	0.01608
m1 = 0.002823	–	0.007653	0.008729	0.009852	0.01102	0.01223	0.01348	0.01476	0.01606
m1 = 0.003432	–	0.007632	0.008706	0.009826	0.01099	0.0122	0.01344	0.01472	0.01601
m1 = 0.00406	–	0.007611	0.008682	0.0098	0.01097	0.01217	0.01341	0.01468	0.01596
m1 = 0.004815	–	0.007596	0.008665	0.00978	0.01094	0.01214	0.01338	0.01465	0.01593
m1 = 0.005831	997.346	0.007573	0.008637	0.009748	0.01091	0.0121	0.01333	0.0146	0.01587
m1 = 0.1219	1002.91	–	–	–	–	–	–	–	–

O=C[O-].[Na+] [sodium methanoate] + O
Conditions	mass density, 298.15 K [kg/m3]	molar conductivity, 278.15 K [S·m2/mol]	molar conductivity, 283.15 K [S·m2/mol]	molar conductivity, 288.15 K [S·m2/mol]	molar conductivity, 293.15 K [S·m2/mol]	molar conductivity, 298.15 K [S·m2/mol]	molar conductivity, 303.15 K [S·m2/mol]	molar conductivity, 308.15 K [S·m2/mol]	molar conductivity, 313.15 K [S·m2/mol]
m1 = 0.0002873	–	0.00626	0.007191	0.008167	0.009185	0.01025	0.01134	0.01247	0.01358
m1 = 0.0003841	–	0.006215	0.007142	0.00813	0.009157	0.01022	0.01133	0.01246	0.01356
m1 = 0.0005247	–	0.006187	0.007111	0.008093	0.009118	0.01018	0.01128	0.01243	0.01351
m1 = 0.0005682	–	0.006178	0.007106	0.008083	0.009103	0.01017	0.01126	0.01238	0.01348
m1 = 0.0006608	–	0.006158	0.007081	0.008058	0.009078	0.01014	0.01124	0.01237	0.01347
m1 = 0.0008201	–	0.006134	0.007053	0.008027	0.009042	0.0101	0.0112	0.01234	0.01345
m1 = 0.0008629	–	0.006107	0.007049	0.008019	0.009031	0.01009	0.01118	0.01231	0.01344
m1 = 0.0009581	–	0.006095	0.007021	0.007988	0.009	0.01005	0.01115	0.01228	0.01341
m1 = 0.001119	–	0.006088	0.007002	0.007965	0.008975	0.01002	0.01111	0.01224	0.0134
m1 = 0.001188	–	0.006075	0.007	0.007964	0.008973	0.01002	0.01111	0.01224	0.01338
m1 = 0.001257	–	0.006054	0.006986	0.007948	0.008957	0.01001	0.0111	0.01223	0.01337
m1 = 0.001548	–	0.006043	0.006974	0.007934	0.008938	0.009988	0.01107	0.01219	0.01332
m1 = 0.001921	–	0.006045	0.006953	0.007912	0.008914	0.009962	0.01105	0.01216	0.01327
m1 = 0.002391	–	0.006033	0.006939	0.007896	0.008898	0.009943	0.01103	0.01213	0.01325
m1 = 0.003024	–	0.006025	0.006923	0.007876	0.008874	0.009917	0.011	0.0121	0.0132
m1 = 0.003744	–	0.006001	0.006901	0.007852	0.008827	0.009883	0.01096	0.01205	0.01315
m1 = 0.004567	–	0.00598	0.006877	0.007823	0.008811	0.009845	0.01092	0.01202	0.01313
m1 = 0.005591	997.307	0.005949	0.006841	0.007783	0.008767	0.009794	0.01086	0.01196	0.01306
m1 = 0.1222	1002.23	–	–	–	–	–	–	–	–

O=CO [formic acid] + O
Conditions	mass density, 298.15 K [kg/m3]	molar conductivity, 278.15 K [S·m2/mol]	molar conductivity, 283.15 K [S·m2/mol]	molar conductivity, 288.15 K [S·m2/mol]	molar conductivity, 293.15 K [S·m2/mol]	molar conductivity, 298.15 K [S·m2/mol]	molar conductivity, 303.15 K [S·m2/mol]	molar conductivity, 308.15 K [S·m2/mol]	molar conductivity, 313.15 K [S·m2/mol]
m1 = 0.0002709	–	0.0149	0.0165	0.018	0.01947	0.02084	0.02214	0.0233	0.0242
m1 = 0.0005657	–	0.0113	0.0125	0.0138	0.0149	0.0161	0.0171	0.018	0.0189
m1 = 0.0008298	–	0.00971	0.0108	0.0119	0.0129	0.0139	0.0149	0.0157	0.0164
m1 = 0.001094	–	0.00867	0.00965	0.0106	0.0115	0.0124	0.0133	0.0141	0.0147
m1 = 0.001442	–	0.00773	0.00862	0.00948	0.0103	0.0111	0.0119	0.0126	0.0132
m1 = 0.001825	–	0.0069	0.00768	0.00845	0.0092	0.00991	0.0106	0.0112	0.0117
m1 = 0.002222	–	0.00636	0.00709	0.00781	0.0085	0.00917	0.00981	0.0104	0.0109
m1 = 0.002648	–	0.00593	0.00661	0.00727	0.0079	0.00851	0.00907	0.00959	0.0101
m1 = 0.003208	–	0.00548	0.00611	0.00673	0.00733	0.00791	0.00845	0.00894	0.00939
m1 = 0.003957	–	0.00505	0.00563	0.0062	0.00675	0.00729	0.00779	0.00824	0.00866
m1 = 0.004898	997.113	0.00463	0.00517	0.0057	0.00621	0.0067	0.00717	0.0076	0.00799
m1 = 0.1291	998.53	–	–	–	–	–	–	–	–
